Where two headings read alike, the source gives them in different places.

Experiment [1] concerns the target T1, human fibroblast collagenase (Homo sapiens, UniProt P03956).
T1 sequence (P03956 100-469): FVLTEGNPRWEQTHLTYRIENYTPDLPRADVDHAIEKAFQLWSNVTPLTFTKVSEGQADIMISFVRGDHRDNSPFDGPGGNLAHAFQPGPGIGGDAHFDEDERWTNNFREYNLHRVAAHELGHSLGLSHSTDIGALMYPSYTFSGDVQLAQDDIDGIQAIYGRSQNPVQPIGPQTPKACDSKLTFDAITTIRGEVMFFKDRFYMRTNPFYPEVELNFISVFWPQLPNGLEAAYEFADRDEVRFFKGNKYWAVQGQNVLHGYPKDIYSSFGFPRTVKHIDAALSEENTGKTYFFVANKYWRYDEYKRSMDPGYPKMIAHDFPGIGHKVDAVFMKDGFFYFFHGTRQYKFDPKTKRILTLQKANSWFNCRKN
Description: Assay for inhibition of collagenase (fluorescein-labeled bovine type I collagen substrate). It is filed as biochemical. The following applies: activated human fibroblast procollagenase, 35°C, 2 hours, pH 7.5; read-out: Inhibition of MMP-1. How it is done:
(§1) Described below are assays for biological activities of the compounds according to the present invention, formulations, dosage forms and dosage levels thereof, and miscellaneous matters. The efficacy of the compounds represented by the formula (I) according to the present invention as inhibitors of human fibroblast collagenase (metalloproteinase involved in the breakdown of tissues) is determined by a procedure based on the method of Y. Murawaki et al., Journal of Hepatology, 18, p328-334 (1993). The efficacy of the compounds (I) of this invention as inhibitors of human fibroblast stromelysin is determined by a procedure based on the method of S. S. Twining, Anal. Biochem., 143, p30 (1984). The assay results obtained are shown hereinbelow, together with biological examples which illustrate embodiments of the assay protocols.
The efficacy of compounds of the present invention to act as inhibitors of human fibroblast collagenase was determined by the procedure of Y. Murawaki et al. (Journal of Hepatology, 18, p.328-334, 1993), compared with a reference compound.
Procollagenase was activated by incubation with 2 mM 4-aminophenylmercuric acetate (APMA) at 35°C for 2 hours. The inhibition was assayed using, as a substrate, fluorescein-labeled bovine type I collagen. To a solution of the substrate (0.5 mg/ml) in a 50 mM Tris-HCl buffer, pH 7.5, containing 0.4M aqueous sodium chloride and 10 mM aqueous […] was added the activated collagenase. The resultant solution was incubated at 35°C for 2 hours. The digestion of the substrate with the enzyme was stopped by addition of 80 mM o-phenanthroline, followed by addition of a porcine elastase solution formed by dissolving 25 µg/ml porcine elastase in the aforementioned Tris-HCl buffer. The mixture was incubated at 37°C for 10 minutes. To the resulting solution was added 70% ethanol, and a 170 mM Tris-HCl buffer, pH 9.5, containing 0.67M aqueous sodium chloride. Undigested substrates were precipitated by centrifugation at 3000 x g for 20 minutes. The supernatant was collected and the fluorescence was read using an excitation wavelength of 495 nm and an emission wavelength of 520 nm. The inhibitory potency of the compounds was calculated. […] The resulting assay data for representative examples are shown in Table 1, compared with the reference compound. […]

The target in experiment [2] is human fibroblast stromelysin (Homo sapiens, UniProt P08254). Kind of experiment: Assay for inhibition of stromelysin (fluorescein-labeled casein substrate). The experiment is classed as biochemical. Here is the method:
as §1
The efficacy of compounds of the present invention to act as inhibitors of human fibroblast stromelysin was determined by the procedure of Twining (Anal. Biochem., 143, p.30, 1984), compared with a reference compound.
Prostromelysin was activated by incubation with 20 µg/ml human plasmin at 37°C for 2 hours, and the reaction was stopped by addition of 2.8 mg/ml aqueous diisopropyl fluorophosphate. The inhibition was assayed using, as a substrate, fluorescein-labeled casein. To a solution of the substrate (1 mg/ml) in a 50 mM Tris-HCl buffer, pH 7.8, containing 10mM aqueous calcium chloride was added the activated stromelysin. The resultant solution was incubated at 37°C for 2 hours. The digestion of the substrate with the enzyme was stopped by addition of 5% trichloroacetic acid. Undigested substrates were precipitated by centrifugation at 3000 x g for 20 minutes. The supernatant was collected, followd by additon of a 0.5M Tris-HCl buffer, pH 8.5. The fluorescence was read using an excitation wavelength of 495 nm and an emission wavelength of 520 nm. The inhibitory potency of the compounds was calculated. […] The resulting assay data for representative examples are shown in Table 2, compared with the reference compound.

Experiment [3] addresses TNF-α Convertase (Homo sapiens, UniProt P78536). Description: Assay for inhibition of TNF-α production in LPS-stimulated, PMA-differentiated U937 cells.
Description: Human monocytic leukemia cell line U937 (human histiocytic lymphoma cell line U937) cells were cultured in RPMI 1640 (Nissui Pharmaceutical Co., Ltd., Japan) supplemented with 5% fetal calf serum (FCS; IBL, Japan) in an incubator at 37°C under 5% CO2, then transferred to multiplates at a density of 1 x 10^6 cells/1 ml/well, and incubated overnight in the presence of 10^-7 M phorbol 12-myristate 13-acetate (Wako Pure Chemical Industries, Ltd., Japan) to form differentiated macrophage-like cells. To the resultant cells was added E. coli O127:B8 lipopolysaccaride (LPS, 0.1 µg/ml; Sigma) alone or along with each compound of the present invention, and the treated cells were then incubated for 6 hours in an incubator under 5% CO2 at 37°C. After the incubation, the cultures were collected and centrifuged at 3000 rpm for 10 minutes to give supernatants which were diluted with purified water and then assayed using a TNF-α assay kit, Genzyme (Table 3).
[4] abbreviates: plasmin-activated human fibroblast prostromelysin, 37°C, 2 hours, pH 7.8, read-out: Inhibition of MMP-3.

Chain of human fibroblast stromelysin (P08254 100-477): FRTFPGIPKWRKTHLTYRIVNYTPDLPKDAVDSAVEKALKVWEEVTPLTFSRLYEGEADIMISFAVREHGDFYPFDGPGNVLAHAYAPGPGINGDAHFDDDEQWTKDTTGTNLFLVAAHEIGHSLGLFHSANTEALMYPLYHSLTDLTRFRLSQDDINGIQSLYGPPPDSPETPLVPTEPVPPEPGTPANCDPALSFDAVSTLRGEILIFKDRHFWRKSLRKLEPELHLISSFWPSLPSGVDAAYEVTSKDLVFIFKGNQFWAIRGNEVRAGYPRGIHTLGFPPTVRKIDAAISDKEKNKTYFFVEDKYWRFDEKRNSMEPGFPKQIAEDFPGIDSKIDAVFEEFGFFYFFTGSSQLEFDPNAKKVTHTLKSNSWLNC
Chain of TNF-α Convertase (P78536 215-824): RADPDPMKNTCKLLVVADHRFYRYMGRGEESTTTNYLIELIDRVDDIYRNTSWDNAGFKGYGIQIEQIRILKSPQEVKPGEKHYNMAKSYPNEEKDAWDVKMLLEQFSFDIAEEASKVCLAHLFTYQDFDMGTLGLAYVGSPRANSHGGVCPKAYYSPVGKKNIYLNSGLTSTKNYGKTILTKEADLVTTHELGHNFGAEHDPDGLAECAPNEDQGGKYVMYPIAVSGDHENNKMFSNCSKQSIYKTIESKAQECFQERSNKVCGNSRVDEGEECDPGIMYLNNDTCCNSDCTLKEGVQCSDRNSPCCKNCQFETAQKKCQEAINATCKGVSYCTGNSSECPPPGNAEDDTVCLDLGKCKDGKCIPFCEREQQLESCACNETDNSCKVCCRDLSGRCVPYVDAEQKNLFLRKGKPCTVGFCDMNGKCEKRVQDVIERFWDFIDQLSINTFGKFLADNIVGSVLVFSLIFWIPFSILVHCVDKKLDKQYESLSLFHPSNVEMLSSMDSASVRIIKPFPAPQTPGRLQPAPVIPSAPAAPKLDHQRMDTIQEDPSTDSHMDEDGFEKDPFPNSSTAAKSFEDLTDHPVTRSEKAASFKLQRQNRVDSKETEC

Turning to `CNC(=O)C(CCNC(=N)N)NC(=O)C(CC(C)C)C(C)C(=O)NO` (single isomer, unassigned) [Compound No. 28, N^4-[3-Guanidino-1(S)-methylcarbamoylpropyl]-N^1-hydroxy-3(R)-isobutyl-2(R or S)-methylsuccinamide · 1 acetate], in experiment [1], the IC50 was 10 nM.

Take `CC(C)CC(C(=O)NC(CCCN)C(=O)NC1CC1)C(C)C(=O)NO` (single isomer, unassigned) [Compound No. 37, N^a-[4-(Hydroxyamino)-2(R)-isobutyl-3(R or S)-methylsuccinyl]-L-ornithine N-cyclopropylamide · 1 acetate]: in experiment [2] (setting [4]), the IC50 came out at 50 nM. Molecule `CNC(=O)C(Cc1ccc(CN)cc1)NC(=O)C(CC(C)C)C(CCCc1ccccc1)C(=O)NO` (single isomer, unassigned) [Compound No. 47, N^a-[4-(Hydroxyamino)-2(R)-isobutyl-3(R or S)-(3-phenylpropyl)succinyl]-4'-aminomethyl-L-phenylalanine N-methylamide · 1 acetate] registered an IC50 in experiment [3] of 210 nM.

For `CNC(=O)[C@H](CCCNC(=N)N)NC(=O)[C@H](CC(C)C)C(Cc1ccc(CNS(C)(=O)=O)cc1)C(=O)NO` (single isomer, unassigned) [Compound No. 52, N^a-[4-(Hydroxyamino)-2(R)-isobutyl-3(R or S)-(p-methanesulfonamidomethylbenzyl)succinyl]-L-arginine N-methylamide· 1 acetate], in experiment [2], the IC50 was found to be 23 nM. For `CNC(=O)[C@H](CCCNC(=N)N)NC(=O)[C@H](CC(C)C)C(CCOc1ccccc1)C(=O)NO` (single isomer, unassigned) [Compound No. 54, N^a-[4-(Hydroxyamino)-2(R)-isobutyl-3(R or S)-(2-phenoxyethyl)succinyl]-L-arginine N-methylamide· 1 acetate], the IC50 in experiment [2] amounted to 10 nM; in experiment [3] it was 340 nM.

The molecule `CNC(=O)C(CCCNC(=N)N)NC(=O)C(CC(C)C)C(CCCC1CCCCC1)C(=O)NO` (single isomer, unassigned) [Compound No. 55, N^a-[4-(Hydroxyamino)-2(R)-isobutyl-3(R or S)-(3-cyclohexylpropyl)succinyl]-L-arginine N-methylamide · 1 acetate] came in with an IC50 in experiment [3] of 279 nM. In the case of `CNC(=O)[C@H](C)NC(=O)[C@H](CC(C)C)C(CCCCCNC(C)=N)C(=O)NO` (single isomer, unassigned) [Compound No. 62, N^a-[4-(Hydroxyamino)-2(R)-isobutyl-3(R or S)-[5-(acetimidoylimino)pentyl]succinyl]-L-alanine N-methylamide], the IC50 in experiment [3] was determined as 2890 nM.

In the case of `CNC(=O)[C@H](CCCCN)NC(=O)[C@H](CC(C)C)C(CCCc1ccc(C(=O)OC)cc1)C(=O)NO` (single isomer, unassigned) [Compound No. 65, N^a-[4-(Hydroxyamino)-2(R)-isobutyl-3(R or S)-[3-(p-methoxycarbonylphenyl)propyl]succinyl]-L-lysine N-methylamide· 1 acetate], in experiment [3], the IC50 is 421 nM.

`CNC(=O)[C@H](CCCCN)NC(=O)[C@H](CC(C)C)C(CCCc1ccc(C(=O)O)cc1)C(=O)NO` (single isomer, unassigned) [Compound No. 67, N^a-[4-(Hydroxyamino)-2(R)-isobutyl-3(R or S)-[3-(p-carboxyphenyl)propyl]succinyl]-L-lysine N-methylamide] returned an IC50 in experiment [3] of 527 nM.

In the case of `CNC(=O)[C@H](CCCCN)NC(=O)[C@H](CC(C)C)C(CCCCCCCCO)C(=O)NO` (single isomer, unassigned) [Compound No. 68, N^a-[4-(Hydroxyamino)-2(R)-isobutyl-3(R or S)-(8-hydroxyoctyl)-succinyl]-L-lysine N-methylamide· 1 acetate], the IC50 in experiment [2] stood at 14 nM. Consider `CNC(=O)[C@H](CCCCN)NC(=O)[C@H](CC(C)C)C(CCOCC(C)C)C(=O)NO` (single isomer, unassigned) [Compound No. 70, N^a-[4-(Hydroxyamino)-2(R)-isobutyl-3(R or S)-(2-isobutyloxyethyl)succinyl]-L-lysine N-methylamide· 1 acetate], for which the IC50 in experiment [2] is 28 nM.

For `CNC(=O)[C@H](CCCCN)NC(=O)[C@H](CC(C)C)C(CCCN1CCOCC1)C(=O)NO` (single isomer, unassigned) [Compound No. 73, N^a-[4-(Hydroxyamino)-2(R)-isobutyl-3(R or S)-[3-(morpholin-4-yl)propyl]succinyl]-L-lysine N-methylamide· 1 acetate], the IC50 in experiment [1] turned out to be 11 nM. Consider `CNC(=O)[C@H](CCN)NC(=O)[C@H](CC(C)C)C(CCCc1ccc(CN)cc1)C(=O)NO` (single isomer, unassigned) [Compound No. 78, N^4-[3-Amino-1(S)-methylcarbamoylpropyl)-N^1-hydroxy-2(R or S)-[3-(p-aminomethylphenyl)propyl]-3(R)-isobutylsuccinamide· 2 acetate], for which the IC50 in experiment [1] was determined as 18 nM. Take `CNC(=O)[C@@H](NC(=O)[C@H](CC(C)C)C(CCCc1ccc(CN)cc1)C(=O)NO)C(C)(C)C` (single isomer, unassigned) [Compound No. 79, N^a-[4-(Hydroxyamino)-2(R)-isobutyl-3(R or S)-[3-(p-aminomethylphenyl)propyl]succinyl]-L-tert-leucine N-methylamide· 1 acetate]: the IC50 in experiment [1] is 5 nM. On to `CNC(=O)[C@H](CCCN)NC(=O)[C@H](CC(C)C)C(CCCc1ccc(CN)cc1)C(=O)NO` (single isomer, unassigned) [Compound No. 80, N^a-[4-(Hydroxyamino)-2(R)-isobutyl-3(R or S)-[3-(p-aminomethylphenyl)propyl]succinyl]-L-ornithine N-methylamide· 1 acetate], for which, in experiment [1], the IC50 worked out at 9 nM. `CC(C)CC(C(=O)NO)C(CC(C)C)C(=O)NC(Cc1ccc(CN)cc1)C(=O)NCCN(C)C` (single isomer, unassigned) [Compound No. 89, N^a-[4-(Hydroxyamino)-2(R),3(R or S)-diisobutylsuccinyl]-4'-aminomethyl-L-phenylalanine N-(2-N',N'-dimethylaminoethyl)amide· 2 acetate] displayed an IC50 in experiment [3] of 1900 nM. Molecule `CNC(=O)C(CCNC(=N)N)NC(=O)C(CC(C)C)C(CCCc1ccccc1)C(=O)NO` [Compound No. 26, N^4-[3-Guanidino-1(S)-methylcarbamoylpropyl]-N^1-hydroxy-3(R)-isobutyl-2-(RS)-(3-phenylpropyl)succinamide · 1 acetate] gave an IC50 in experiment [2] of 40 nM. Turning to `CC(C)CC(C(=O)NO)C(CC(C)C)C(=O)NC(Cc1ccc(CN)cc1)C(=O)NCCO` [Compound No. 35, N^a-[4-(Hydroxyamino)-2(R),3(RS)-diisobutylsuccinyl]-4'-aminomethyl-L-phenylalanine N-(2-hydroxyethyl)amide · 1 acetate], the IC50 in experiment [2] (setting [4]) turned out to be 19 nM. As for `CNC(=O)[C@H](C)NC(=O)[C@H](CC(C)C)C(CCCc1ccc(CN)cc1)C(=O)NO` (stereo partly drawn) [Compound No. 58, N^a-[4-(Hydroxyamino)-2(R)-isobutyl-3(RS)-[3-(p-aminomethylphenyl)propyl]succinyl]-L-alanine N-methylamide · 1 acetate], in experiment [3], the IC50 worked out at 942 nM.

The record behind these values is EP1038864A1, “NOVEL METALLOPROTEINASE INHIBITORS” (FUJI YAKUHIN KOGYO KABUSHIKI KAISHA, priority 1997, dated 1999).
